Laboratory results: paper PMC7316778 (Nature Communications, 2020)
Where “and” joins values, the source holds several entries; their conditions need not be identical. Identical values can stand only once. Like-named read-outs stand apart in the source and are kept apart here.

Experiments:
Assay in all cases: SelectScreen kinase assay
[1] = biological target: T1, PRKD1 (PKC mu) (Homo sapiens, UniProt Q15139)
T1 sequence (Q15139 1-912): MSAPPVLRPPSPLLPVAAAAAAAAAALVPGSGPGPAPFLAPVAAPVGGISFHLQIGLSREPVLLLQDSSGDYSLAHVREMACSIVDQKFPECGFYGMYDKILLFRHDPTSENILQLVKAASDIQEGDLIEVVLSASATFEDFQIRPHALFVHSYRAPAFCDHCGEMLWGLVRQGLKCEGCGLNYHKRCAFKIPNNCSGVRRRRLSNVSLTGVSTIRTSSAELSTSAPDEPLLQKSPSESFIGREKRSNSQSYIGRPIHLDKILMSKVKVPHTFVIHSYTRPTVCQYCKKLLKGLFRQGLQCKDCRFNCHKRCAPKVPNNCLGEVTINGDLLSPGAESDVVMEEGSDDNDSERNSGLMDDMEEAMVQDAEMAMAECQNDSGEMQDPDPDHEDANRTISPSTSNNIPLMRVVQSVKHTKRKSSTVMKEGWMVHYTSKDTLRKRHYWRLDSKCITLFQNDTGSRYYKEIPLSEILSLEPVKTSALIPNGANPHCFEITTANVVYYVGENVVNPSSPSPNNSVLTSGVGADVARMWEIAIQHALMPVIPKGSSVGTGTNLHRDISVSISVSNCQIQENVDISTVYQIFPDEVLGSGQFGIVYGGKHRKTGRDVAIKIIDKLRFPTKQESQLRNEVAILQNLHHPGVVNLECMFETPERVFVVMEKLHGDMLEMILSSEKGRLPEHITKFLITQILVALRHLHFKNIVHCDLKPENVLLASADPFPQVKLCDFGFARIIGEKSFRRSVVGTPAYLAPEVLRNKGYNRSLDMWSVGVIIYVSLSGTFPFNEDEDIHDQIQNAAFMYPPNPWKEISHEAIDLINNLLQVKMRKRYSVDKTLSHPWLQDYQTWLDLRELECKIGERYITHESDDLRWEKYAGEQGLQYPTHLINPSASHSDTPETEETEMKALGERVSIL
Description: (§1) Selectivity profiling assays were performed by the Invitrogen SelectScreen™ Services. […] The concentration of ATP was selected to be equal to the KM, unless indicated otherwise.

[2] = biological target: CHUK (IKK alpha) (Homo sapiens, UniProt O15111)
Description: as §1

[3] = biological target: T2, MYLK4 (Homo sapiens, UniProt Q86YV6)
T2 sequence (Q86YV6 1-388): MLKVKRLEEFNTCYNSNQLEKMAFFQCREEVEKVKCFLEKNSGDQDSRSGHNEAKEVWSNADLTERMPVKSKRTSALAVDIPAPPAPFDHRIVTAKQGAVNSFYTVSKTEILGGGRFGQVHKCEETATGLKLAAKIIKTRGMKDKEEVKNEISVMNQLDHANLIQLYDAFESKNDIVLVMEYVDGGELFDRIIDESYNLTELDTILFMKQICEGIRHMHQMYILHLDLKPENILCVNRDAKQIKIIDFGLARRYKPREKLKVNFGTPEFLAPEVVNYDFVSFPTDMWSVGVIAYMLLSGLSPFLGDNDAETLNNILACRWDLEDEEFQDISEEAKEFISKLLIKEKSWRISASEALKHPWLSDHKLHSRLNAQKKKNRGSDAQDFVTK
Description: as §1

[4] = biological target: RPS6KA6 (RSK4) (Homo sapiens, UniProt Q9UK32)
Description: as §1

[5] = biological target: FLT4 (VEGFR3) (Homo sapiens, UniProt P35916)
Description: as §1

[6] = test system: FLT4 (VEGFR3); conditions: IC50 on that kinase divided by IC50 on FES^S700C
Description: as §1

[7] = biological target: NEK9 (Homo sapiens, UniProt Q8TD19)
Description: as §1

[8] = biological target: CHEK1 (CHK1) (Homo sapiens, UniProt O14757); conditions: 1 μM WEL028, 1 h preincubation
Description: as §1

[9] = biological target: EPHA2 (Homo sapiens, UniProt P29317)
Description: as §1

[10] = biological target: PIK3CD/PIK3R1 (p110d/p85a) (Homo sapiens, UniProt O00329); conditions: 1 h, 1 μM WEL028, 1 h preincubation
Description: as §1

[11] = biological target: T3, MAPKAPK5 (PRAK) (Homo sapiens, UniProt Q8IW41)
T3 sequence (Q8IW41 1-473): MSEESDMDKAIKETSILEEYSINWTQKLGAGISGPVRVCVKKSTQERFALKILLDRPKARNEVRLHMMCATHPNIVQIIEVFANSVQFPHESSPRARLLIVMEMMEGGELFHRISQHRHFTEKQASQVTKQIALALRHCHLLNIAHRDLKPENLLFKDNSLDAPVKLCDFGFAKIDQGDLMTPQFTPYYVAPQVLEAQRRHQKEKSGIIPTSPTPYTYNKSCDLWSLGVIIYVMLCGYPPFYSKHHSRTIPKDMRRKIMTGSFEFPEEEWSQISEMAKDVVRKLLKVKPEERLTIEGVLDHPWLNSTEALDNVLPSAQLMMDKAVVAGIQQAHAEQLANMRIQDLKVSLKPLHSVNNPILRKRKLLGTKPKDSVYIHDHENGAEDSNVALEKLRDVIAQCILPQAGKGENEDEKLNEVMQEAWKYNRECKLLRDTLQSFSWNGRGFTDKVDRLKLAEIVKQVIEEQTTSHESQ
Description: as §1

[12] = 1 µM, ZLYTE, ATP Km app, listed as WEL028, 1 µM
[13] = 1 h, 1 μM WEL028, 1 h preincubation
[14] = 1 h, log[inhibitor] (M) -5.00, ZLYTE, ATP Km app
[15] = 1 h, log[inhibitor] (M) -5.48, ZLYTE, ATP Km app
[16] = 1 h, log[inhibitor] (M) -5.95, ZLYTE, ATP Km app
[17] = 1 h, log[inhibitor] (M) -6.43, ZLYTE, ATP Km app
[18] = 1 h, log[inhibitor] (M) -7.39, ZLYTE, ATP Km app

CHUK (IKK alpha), sequence (O15111 whole entry): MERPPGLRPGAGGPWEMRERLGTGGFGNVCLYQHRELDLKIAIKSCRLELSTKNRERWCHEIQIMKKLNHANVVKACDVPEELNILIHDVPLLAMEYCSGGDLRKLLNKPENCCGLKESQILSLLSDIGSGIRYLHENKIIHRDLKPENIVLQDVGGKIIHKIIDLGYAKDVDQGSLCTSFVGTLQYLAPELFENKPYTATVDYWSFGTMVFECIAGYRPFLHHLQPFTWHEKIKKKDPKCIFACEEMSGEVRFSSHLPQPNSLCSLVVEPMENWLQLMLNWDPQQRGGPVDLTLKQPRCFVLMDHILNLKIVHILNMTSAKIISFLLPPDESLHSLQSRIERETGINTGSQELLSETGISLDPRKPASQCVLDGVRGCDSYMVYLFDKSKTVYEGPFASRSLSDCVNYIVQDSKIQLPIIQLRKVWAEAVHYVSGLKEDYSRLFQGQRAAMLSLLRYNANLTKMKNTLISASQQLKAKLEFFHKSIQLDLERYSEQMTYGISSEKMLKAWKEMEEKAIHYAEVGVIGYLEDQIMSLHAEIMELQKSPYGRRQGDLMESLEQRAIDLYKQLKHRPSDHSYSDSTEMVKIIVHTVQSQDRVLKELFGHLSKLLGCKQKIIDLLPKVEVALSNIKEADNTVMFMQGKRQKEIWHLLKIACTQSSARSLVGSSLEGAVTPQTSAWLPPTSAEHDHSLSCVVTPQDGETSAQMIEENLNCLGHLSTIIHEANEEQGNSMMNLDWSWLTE
RPS6KA6 (RSK4), sequence (Q9UK32 whole entry): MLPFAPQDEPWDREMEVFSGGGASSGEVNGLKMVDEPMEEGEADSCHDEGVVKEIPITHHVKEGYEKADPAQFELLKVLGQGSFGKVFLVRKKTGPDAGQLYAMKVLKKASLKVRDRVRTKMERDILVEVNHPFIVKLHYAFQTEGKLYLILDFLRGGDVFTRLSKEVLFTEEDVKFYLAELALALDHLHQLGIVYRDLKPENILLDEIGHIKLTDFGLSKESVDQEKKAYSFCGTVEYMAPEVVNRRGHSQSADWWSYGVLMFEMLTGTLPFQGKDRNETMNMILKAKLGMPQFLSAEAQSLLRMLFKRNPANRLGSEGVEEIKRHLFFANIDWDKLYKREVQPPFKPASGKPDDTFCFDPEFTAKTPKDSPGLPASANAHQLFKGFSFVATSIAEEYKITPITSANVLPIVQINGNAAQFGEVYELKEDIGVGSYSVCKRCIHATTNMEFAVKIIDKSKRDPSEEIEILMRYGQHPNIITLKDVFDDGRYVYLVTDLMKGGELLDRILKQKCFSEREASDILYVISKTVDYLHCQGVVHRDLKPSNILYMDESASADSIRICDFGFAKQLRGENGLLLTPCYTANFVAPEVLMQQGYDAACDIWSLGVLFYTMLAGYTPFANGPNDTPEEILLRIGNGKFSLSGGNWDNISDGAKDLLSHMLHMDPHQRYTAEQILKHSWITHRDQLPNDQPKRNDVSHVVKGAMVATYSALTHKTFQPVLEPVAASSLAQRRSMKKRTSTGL
FLT4 (VEGFR3) (Homo sapiens, UniProt P35916), sequence (P35916 25-1363, species assumed): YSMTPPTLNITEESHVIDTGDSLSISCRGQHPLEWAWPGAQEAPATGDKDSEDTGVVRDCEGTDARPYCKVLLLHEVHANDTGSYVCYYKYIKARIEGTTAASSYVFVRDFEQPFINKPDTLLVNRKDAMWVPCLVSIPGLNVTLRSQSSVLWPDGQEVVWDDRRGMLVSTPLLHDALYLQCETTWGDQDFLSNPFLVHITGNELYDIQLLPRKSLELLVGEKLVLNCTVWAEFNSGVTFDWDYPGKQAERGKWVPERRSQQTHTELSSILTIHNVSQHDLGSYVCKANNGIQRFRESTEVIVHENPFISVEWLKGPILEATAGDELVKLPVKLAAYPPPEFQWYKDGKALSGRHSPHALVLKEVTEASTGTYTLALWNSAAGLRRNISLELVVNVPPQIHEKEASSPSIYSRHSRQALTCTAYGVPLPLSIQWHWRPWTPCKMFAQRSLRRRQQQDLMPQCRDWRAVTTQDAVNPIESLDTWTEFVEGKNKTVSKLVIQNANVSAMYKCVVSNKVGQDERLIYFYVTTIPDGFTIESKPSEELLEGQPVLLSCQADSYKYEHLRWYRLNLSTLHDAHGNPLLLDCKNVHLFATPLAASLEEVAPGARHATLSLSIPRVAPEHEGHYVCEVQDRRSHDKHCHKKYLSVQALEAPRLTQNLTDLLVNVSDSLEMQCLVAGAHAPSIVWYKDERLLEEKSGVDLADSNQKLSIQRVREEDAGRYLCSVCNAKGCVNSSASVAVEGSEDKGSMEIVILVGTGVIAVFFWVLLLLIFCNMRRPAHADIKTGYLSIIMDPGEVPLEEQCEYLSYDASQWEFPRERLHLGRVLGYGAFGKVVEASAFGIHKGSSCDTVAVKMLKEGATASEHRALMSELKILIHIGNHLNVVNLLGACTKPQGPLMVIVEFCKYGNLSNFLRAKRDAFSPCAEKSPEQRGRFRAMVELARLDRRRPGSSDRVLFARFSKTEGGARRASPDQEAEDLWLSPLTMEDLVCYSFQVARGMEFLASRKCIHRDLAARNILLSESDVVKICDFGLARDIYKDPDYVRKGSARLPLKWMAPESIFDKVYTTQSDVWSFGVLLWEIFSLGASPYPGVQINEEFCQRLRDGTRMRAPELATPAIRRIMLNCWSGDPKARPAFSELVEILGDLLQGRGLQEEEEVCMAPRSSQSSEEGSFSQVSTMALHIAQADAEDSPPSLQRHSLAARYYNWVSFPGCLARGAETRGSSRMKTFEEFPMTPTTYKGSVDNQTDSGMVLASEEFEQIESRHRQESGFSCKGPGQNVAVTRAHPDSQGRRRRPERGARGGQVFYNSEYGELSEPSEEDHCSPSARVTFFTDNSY
NEK9, sequence (Q8TD19 whole entry): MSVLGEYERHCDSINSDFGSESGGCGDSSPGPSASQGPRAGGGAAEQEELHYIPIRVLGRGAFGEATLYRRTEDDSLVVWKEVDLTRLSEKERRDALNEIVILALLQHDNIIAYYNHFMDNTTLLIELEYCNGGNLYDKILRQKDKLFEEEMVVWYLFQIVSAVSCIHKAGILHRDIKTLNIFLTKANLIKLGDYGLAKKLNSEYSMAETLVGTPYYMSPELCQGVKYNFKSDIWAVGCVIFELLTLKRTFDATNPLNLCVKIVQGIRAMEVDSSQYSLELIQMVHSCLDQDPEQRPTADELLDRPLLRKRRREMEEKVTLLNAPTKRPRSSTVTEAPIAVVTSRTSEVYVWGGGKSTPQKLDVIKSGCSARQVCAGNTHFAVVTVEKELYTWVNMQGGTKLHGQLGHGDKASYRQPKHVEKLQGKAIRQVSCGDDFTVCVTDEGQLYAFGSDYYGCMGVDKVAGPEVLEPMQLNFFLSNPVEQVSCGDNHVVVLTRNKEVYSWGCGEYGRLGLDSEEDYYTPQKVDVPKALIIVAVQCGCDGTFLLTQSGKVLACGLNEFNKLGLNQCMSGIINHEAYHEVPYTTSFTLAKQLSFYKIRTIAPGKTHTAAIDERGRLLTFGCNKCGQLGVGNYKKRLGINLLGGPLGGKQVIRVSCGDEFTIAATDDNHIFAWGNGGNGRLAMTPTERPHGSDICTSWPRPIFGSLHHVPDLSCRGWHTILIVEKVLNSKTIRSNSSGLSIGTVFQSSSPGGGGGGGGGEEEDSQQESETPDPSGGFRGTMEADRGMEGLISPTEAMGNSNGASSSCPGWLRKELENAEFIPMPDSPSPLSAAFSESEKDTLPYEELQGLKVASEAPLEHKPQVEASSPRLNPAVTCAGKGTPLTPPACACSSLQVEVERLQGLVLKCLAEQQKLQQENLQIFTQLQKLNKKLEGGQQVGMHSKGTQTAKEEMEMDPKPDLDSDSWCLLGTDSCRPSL
EPHA2, sequence (P29317 24-976): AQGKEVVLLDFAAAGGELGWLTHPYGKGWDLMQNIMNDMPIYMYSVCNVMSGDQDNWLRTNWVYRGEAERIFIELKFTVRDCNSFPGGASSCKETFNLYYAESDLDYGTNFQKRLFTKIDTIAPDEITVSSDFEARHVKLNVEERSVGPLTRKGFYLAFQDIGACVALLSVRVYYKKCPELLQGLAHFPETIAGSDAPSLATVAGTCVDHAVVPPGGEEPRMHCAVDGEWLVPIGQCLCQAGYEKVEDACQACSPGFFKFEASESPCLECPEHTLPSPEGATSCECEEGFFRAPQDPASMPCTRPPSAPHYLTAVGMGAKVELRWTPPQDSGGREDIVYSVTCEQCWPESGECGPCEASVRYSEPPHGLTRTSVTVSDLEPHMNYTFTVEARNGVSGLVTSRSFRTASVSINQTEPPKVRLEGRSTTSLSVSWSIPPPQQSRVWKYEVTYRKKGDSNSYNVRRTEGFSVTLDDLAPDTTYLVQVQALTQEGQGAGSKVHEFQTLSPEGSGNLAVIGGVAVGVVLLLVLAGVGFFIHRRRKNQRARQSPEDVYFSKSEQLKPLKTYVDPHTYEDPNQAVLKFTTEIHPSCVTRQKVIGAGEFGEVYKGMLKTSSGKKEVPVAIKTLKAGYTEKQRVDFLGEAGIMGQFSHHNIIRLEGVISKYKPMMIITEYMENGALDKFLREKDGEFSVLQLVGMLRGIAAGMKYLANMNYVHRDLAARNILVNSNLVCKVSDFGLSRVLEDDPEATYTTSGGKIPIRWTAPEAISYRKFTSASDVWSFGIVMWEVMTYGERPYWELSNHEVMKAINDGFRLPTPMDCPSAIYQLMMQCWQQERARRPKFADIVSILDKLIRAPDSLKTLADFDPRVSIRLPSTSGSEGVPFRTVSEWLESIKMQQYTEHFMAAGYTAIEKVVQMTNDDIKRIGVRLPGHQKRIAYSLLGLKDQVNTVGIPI

Q: Which results are given for C#CCOc1ccc(Nc2ncc(Cl)c(Nc3ccccc3NC(=O)C=C)n2)c(OC)c1 [Compound 6]?
A: Inhibition at 1 µM (%) [1, 12]: 9%; inhibition at 1 µM [1, 13]: 11%; inhibition at 1 µM ([1]; read-out: Inhibition at 1 µM (%), 1 µM, ZLYTE, ATP Km app): 12%; inhibition at 1 µM [2, 13]: 7%; Inhibition at 1 µM (%) ([2]; CHUK (IKK alpha), 1 µM, Adapta, ATP Km app, listed as WEL028, 1 µM): 12% and 3%; inhibition at 1 µM [3, 13]: 10%; Inhibition at 1 µM (%) ([3]; MYLK4, 1 µM, LanthaScreen Binding, listed as WEL028, 1 µM): 14%; inhibition at 1 µM ([3]; read-out: Inhibition at 1 µM (%), MYLK4, 1 µM, LanthaScreen Binding): 7%; Inhibition (%) ([4]; 1 μM WEL028, 1 h preincubation): 5%; Inhibition at 1 µM (%) [4, 12]: 1% and 9%; IC50 [5]: 200 nM; inhibition at 1 µM [5, 13]: 120%; inhibition at 10 µM [5, 14]: 103%; inhibition at 3.31 µM [5, 15]: 100%; inhibition at 1.12 µM [5, 16]: 95%; inhibition at 0.372 µM [5, 17]: 70%; inhibition at 0.123 µM ([5]; 1 h, log[inhibitor] (M) -6.91, ZLYTE, ATP Km app): 38%; inhibition at 0.04074 µM [5, 18]: 9%; inhibition at 0.0138 µM ([5]; 1 h, log[inhibitor] (M) -7.86, ZLYTE, ATP Km app): 4%; inhibition at 0.00151 µM ([5]; 1 h, log[inhibitor] (M) -8.82, ZLYTE, ATP Km app): 2%; inhibition at 1 µM ([5]; read-out: Inhibition at 1 µM (%), FLT4 (VEGFR3), 1 µM, ZLYTE, ATP Km app): 121%; Apparent fold selectivity [6]: 50 fold; inhibition at 1 µM [7, 13]: -8%; Inhibition at 1 µM (%) ([7]; NEK9, 1 µM, ZLYTE, ATP Km app, listed as WEL028, 1 µM): -7% and -9%; Inhibition (%) [8]: 0%; inhibition at 1 µM [9, 13]: 7%; Inhibition at 1 µM (%) ([9]; EPHA2, 1 µM, ZLYTE, ATP Km app): 13%; inhibition at 1 µM [10]: 8%; IC50 [11]: 501 nM; inhibition at 1 µM [11, 13]: 66%; inhibition at 10 µM [11, 14]: 95%; inhibition at 3.31 µM [11, 15]: 94%; inhibition at 1.12 µM [11, 16]: 76%; inhibition at 0.372 µM [11, 17]: 36%; inhibition at 0.04074 µM [11, 18]: 13%; inhibition at 0.004571 µM ([11]; 1 h, log[inhibitor] (M) -[…], ZLYTE, ATP Km app): 4%; Apparent fold selectivity ([11]; IC50 on that kinase divided by IC50 on FES^S700C): 112 fold; Inhibition at 1 µM (%) ([11]; MAPKAPK5 (PRAK), 1 µM, ZLYTE, ATP Km app, listed as WEL028, 1 µM): 70%; inhibition at 1 µM ([11]; read-out: Inhibition at 1 µM (%), MAPKAPK5 (PRAK), 1 µM, ZLYTE, ATP Km app): 62%
